From ChEMBL document CHEMBL1151592, “Synthesis of new 3,4-disubstituted pyrrolidines as thromboxane A2/prostaglandin H2 (TP) receptor antagonists” (Bioorg Med Chem Lett, 1996)

Species on record: Homo sapiens
Test: Compound was evaluated for anti-platelet activity by measuring its inhibitory effect on human platelet rich plasma (PRP) aggregated with U-46,619.
Assay type: functional
Conditions: not given
For `O=C(O)CC/C=C\C[C@@H]1CN(S(=O)(=O)c2cccc3cccnc23)C[C@@H]1c1ccccc1O`, the IC50 was 3000 nM.
Molecule `O=C(O)CC/C=C\C[C@@H]1CN(S(=O)(=O)c2ccc(Cl)cc2)C[C@@H]1c1ccccc1O` has an IC50 of 4700 nM.
With `O=C(O)CCC/C=C\C[C@@H]1CN(S(=O)(=O)c2cccc3ccccc23)C[C@@H]1c1ccccc1O` the IC50 was 3600 nM.
Work on `O=C(O)CC/C=C\C[C@@H]1CN(S(=O)(=O)c2cccc3ccccc23)C[C@@H]1c1ccccc1O` yielded an IC50 of 600 nM.
`O=C(O)CC/C=C\C[C@@H]1CN(S(=O)(=O)c2cccc3cnccc23)C[C@@H]1c1ccccc1O` showed an IC50 of 1300 nM.

These molecules were tested on Cavia porcellus (assay: Compound was evaluated in vivo for inhibition of U 46619 induced increase in tracheal pressure of guinea pig.). Conditions: Trachea, read-out: ID50 (the source's name).
Assay type: functional
Work on `O=C(O)CC/C=C\C[C@@H]1CN(Cc2ccccc2)C[C@@H]1c1ccccc1O` yielded an ED50 of 0.17 mg/kg.
Molecule `O=C(O)CC/C=C\C[C@@H]1CN(Cc2cccnc2)C[C@@H]1c1ccccc1O` has an ED50 of 1 mg/kg.
Work on `CC(C)C(=O)N1C[C@@H](C/C=C\CCC(=O)O)[C@@H](c2ccccc2O)C1` yielded an ED50 of 0.11 mg/kg.
Work on `O=C(O)CC/C=C\C[C@@H]1CN(S(=O)(=O)c2cccc3cccnc23)C[C@@H]1c1ccccc1O` yielded an ED50 of 0.025 mg/kg.
In the case of `O=C(O)CC/C=C\C[C@@H]1CN(S(=O)(=O)c2ccc(Cl)cc2)C[C@@H]1c1ccccc1O`, the ED50 is reported as 0.03 mg/kg.
`O=C(O)CC/C=C\C[C@@H]1CO[C@H](c2ccccc2Cl)O[C@@H]1c1ccccc1O` gave an ED50 of 0.0007 mg/kg.
Molecule `O=C(O)CCC/C=C\C[C@@H]1CN(S(=O)(=O)c2cccc3ccccc23)C[C@@H]1c1ccccc1O` has an ED50 of 0.08 mg/kg.
`O=C(O)CC/C=C\C[C@@H]1CN(S(=O)(=O)c2ccc(Cl)cc2)C[C@H]1c1ccccc1O` was tested, and the ED50 was 0.12 mg/kg.
Work on `O=C(O)CC/C=C\C[C@@H]1CN(S(=O)(=O)c2cccc3ccccc23)C[C@@H]1c1ccccc1O` yielded an ED50 of 0.0075 mg/kg.
Work on `CCCCCCC(=O)N1C[C@@H](C/C=C\CCC(=O)O)[C@@H](c2ccccc2O)C1` yielded an ED50 of 0.43 mg/kg.
In the case of `O=C(O)CC/C=C\C[C@@H]1CN(S(=O)(=O)c2cccc3cnccc23)C[C@H]1c1ccccc1O`, the ED50 is reported as 0.056 mg/kg.
`O=C(O)CC/C=C\C[C@@H]1CN(S(=O)(=O)c2cccc3cnccc23)C[C@@H]1c1ccccc1O` gave an ED50 of 0.011 mg/kg.

The molecules below were run against Thromboxane A2 receptor (Cavia porcellus) (assay: Antagonistic activity against TP-receptor by inhibition of U 46619-induced contraction of isolated guinea pig trachea). Conditions: read-out: pA2 (converted).
With `O=C(O)CC/C=C\C[C@@H]1CN(Cc2ccccc2)C[C@@H]1c1ccccc1O` the Kb was 251 nM.
`O=C(O)CC/C=C\C[C@@H]1CN(S(=O)(=O)c2ccc(Cl)cc2)C[C@@H]1c1ccccc1O` showed a Kb of 1 nM.
In the case of `O=C(O)CCC/C=C\C[C@@H]1CN(S(=O)(=O)c2cccc3ccccc23)C[C@@H]1c1ccccc1O`, the Kb is reported as 6.31 nM.
`O=C(O)CC/C=C\C[C@@H]1CN(S(=O)(=O)c2ccc(Cl)cc2)C[C@H]1c1ccccc1O` showed a Kb of 12.6 nM.
